The target of test [1] is T1, MAO-B (Cavia porcellus, UniProt P58028).
T1 construct: by human platelets and/or guinea pig hippocampal homogenates; from tissue; host or cells: guinea pig hippocampus homogenate
T1 sequence (P58028 1-520): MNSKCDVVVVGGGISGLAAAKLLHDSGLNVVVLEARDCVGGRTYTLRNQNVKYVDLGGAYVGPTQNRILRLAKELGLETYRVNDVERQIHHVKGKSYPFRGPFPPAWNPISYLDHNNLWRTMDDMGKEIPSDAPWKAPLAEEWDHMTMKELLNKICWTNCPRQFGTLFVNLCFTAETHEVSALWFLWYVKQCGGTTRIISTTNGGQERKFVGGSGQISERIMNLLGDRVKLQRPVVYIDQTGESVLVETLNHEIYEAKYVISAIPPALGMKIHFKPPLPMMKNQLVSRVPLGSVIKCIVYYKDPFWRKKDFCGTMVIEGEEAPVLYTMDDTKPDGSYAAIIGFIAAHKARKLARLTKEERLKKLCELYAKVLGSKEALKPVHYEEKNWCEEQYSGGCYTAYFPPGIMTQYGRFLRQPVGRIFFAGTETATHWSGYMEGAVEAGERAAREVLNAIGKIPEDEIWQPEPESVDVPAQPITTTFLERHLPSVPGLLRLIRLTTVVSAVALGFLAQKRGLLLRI
Nature of the test: MAO-B inhibition in guinea pig hippocampal homogenates in vitro. Type of test: biochemical. The settings on record: read-out: MAO-B % Inhibition x ± SEM. From the text: Human platelet MAO is comprised exclusively of the type-B isoform of the enzyme. […] The present study also examined the two enantiomers of DMS for inhibitory activity with respect to the MAO-A and MAO-B in guinea pig hippocampal tissue. Guinea pig brain tissue is an excellent animal model for studying brain dopamine metabolism, the enzyme kinetics of the multiple forms of MAO and the inhibitory properties of novel agents that interact with these enzymes. The multiple forms of MAO in this animal species show similar kinetic properties to those found in human brain tissue. Finally, the test agents were administered to guinea pigs and the extent to which they might act as inhibitors of brain MAO in vivo was assessed.
In vitro: The test system utilized the in vitro conversion of specific substrates of MAO-A (^14C-serotonin) and MAO-B (^14C-phenylethylamine) by human platelets and/or guinea pig hippocampal homogenates. […] A percent inhibition was calculated from these values.

In test [2] the test system is cultured rat mesencephalic cells exposed to NMDA. Nature of the test: NMDA model of cell death: TH immunochemistry. The following applies: 100 μM NMDA exposure.
Method: Rat mesencephalic cell cultures were exposed to 100 μM NMDA and incubated as described above in connection with FIG. 16.

Data on two compounds can be found in patent publication US6375979B2 (Somerset Pharmaceuticals, Inc., priority 1995, dated 2002).

“And” between values parts separate entries of the source, which are not always exact repeats. Identical values can stand only once.

As for `C#CCN[C@@H](C)Cc1ccccc1` (single isomer, unassigned) [S(+)DMS, ent-desmethylselegiline], in test [1], the inhibition (in general, the percentage by which the read-out fell short of the control) at 1 µM worked out at 44.4 ± 6.4%.
Consider desmethylselegiline [R(−)DMS], for which, in test [2] (0.5 μM), the “TH Immunochemistry, % control, Mean” value worked out at 97.3%; the “TH Immunochemistry, % control, individual cultures” value was 100.9% and 79.6% and 111.5%; the “TH Immunochemistry, cells/cm^2, Mean” value is 91.67 cells/cm^2; the “TH Immunochemistry, cells/cm^2, individual cultures” value is 95.0 cells/cm^2 and 75.0 cells/cm^2 and 105.0 cells/cm^2. In addition, in test [2] (5.0 μM), the “TH Immunochemistry, % control, Mean” value amounted to 136.1%; the “TH Immunochemistry, % control, individual cultures” value is 151.3% and 130.1% and 138.1% and 124.8%; the “TH Immunochemistry, cells/cm^2, Mean” value is given as 128.13 cells/cm^2; the “TH Immunochemistry, cells/cm^2, individual cultures” value was 142.5 cells/cm^2 and 122.5 cells/cm^2 and 130.0 cells/cm^2 and 117.5 cells/cm^2. In test [2] (50 μM), the “TH Immunochemistry, % control, Mean” value was 165.9%; the “TH Immunochemistry, % control, individual cultures” value was 252.2% and 180.5% and 108.8% and 122.1%; the “TH Immunochemistry, cells/cm^2, Mean” value is given as 156.25 cells/cm^2; the “TH Immunochemistry, cells/cm^2, individual cultures” value was 237.5 cells/cm^2 and 170.0 cells/cm^2 and 102.5 cells/cm^2 and 115.0 cells/cm^2.
